From patent publication US20110189174A1, “COMPOSITIONS AND METHODS FOR TREATING, REDUCING, AMELIORATING, ALLEVIATING, OR INHIBITING PROGRESSION OF, PATHOGENIC OCULAR NEOVASCULARIZATION” (priority 2010, published 2011)

Tests used:
[1] = Clinical ophthalmic examination in monkeys (vitreal cell scores, anterior chamber inflammation); assay type: in vivo, cynomolgus monkeys (Macaca fascicularis); conditions: intravitreal days 1 and 15, cells not distinguishable from dispersed drug
Protocol: Once the phase Ib study was completed, and it was established that the drug suspension in oil would not interfere with either laser administration, evaluation of CNV or cause adverse effects, phase II was initiated. On days 1, and 15 both eyes of monkeys received 50 μL of Lucentis (0.5 mg/eye), vehicle (0 mg/eye), BOL-303050-X (1.5 mg/eye), BOL-303054-X (1.5 mg/eye) or BOL-303055-X (1.5 mg/eye) (Table 2). Intravitreous injection was performed for each by eye aiming towards mid-vitreous body. Dosing in the right eye was alternated for successive doses (as applicable) at approximately the 11 o'clock and 10 o'clock positions. Dosing in the left eye was alternated for successive doses (as applicable) from approximately the 1 o'clock and 2 o'clock positions.
Animals were examined at baseline, on days 1, 3, 7, 15, and 31 of Dosing Phase II and on the day of scheduled sacrifice (day 38). On days of dose administration the ophthalmic examination was done prior to dosing.

[2] = tested on: laser-induced CNV in rats; assay: Laser-induced choroidal neovascularization in rats (CNV area, fluorescein angiography grades); assay type: in vivo, Brown Norway rats; conditions: day 14, 200 μg/eye (echistatin 5 μg, Avastin 125 μg)
Protocol: Fifty six male Brown Norway rats, approximately 200-300 grams of body weight and two months of age, were used in this study. This study was performed in two cohorts and only one eye of each rat was used.
The pupils were dilated and then the rats were anesthetized as described in baseline examination. The rats were positioned in front of a slit lamp system (Haag-Streit USA, Mason, Ohio). […] A diode laser (OcuLight TX, IRIDEX, Mountain View, Calif.) was used for photocoagulation (532 nm wavelength, 120 mW power, 50 μm spot size and 0.05 seconds duration). For each right eye, a series of six photocoagulation sites were concentrically placed between the major retinal vessels at equal distance (about two optic discs) around the optic nerve head. […] If a significant retinal or subretinal hemorrhage occurred during the laser photocoagulation, then the left eye was be photocoagulated and used as the experimental eye.
Grade 1 lesions had no hyperfluorescence.
The eyes were collected on day 14 and immediately fixed in 4% paraformaldehyde in PBS (pH 7.4) for one and half hours, and then transferred into cold PBS and kept at 4° C. for further processing.
The incubation was performed in a humidified dark chamber with gentle rotation at 4° C. overnight. On the second day, the retinal pigment epithelium (RPE)-choroidsclera complexes were washed with cold IHC buffer, mounted with ProLong® Gold antifade reagent, covered with circular cover glass, and sealed with clear nail polish. Fluorescent images were collected with a confocal microscope (FluoView FV 1000 confocal microscope, Olympus, Center Valley, Pa.) and a 4×, 0.16 numerical aperture objective lens. […] The laser sites were identified by merging images of the green (phalloidin labeling RPE) and the red (isolectin IB4 labeling CNV) channels. CNV complexes were identified using the red channel (isolectin), and their areas were quantified using the FluoView software (Version 1.7a).
Average FA scores and areas of CNV complexes in each group were presented as mean±SEM, unless otherwise indicated. They were analyzed using a one-way ANOVA followed by a Tukey-Kramer test after Box-Cox transformations. All statistics were performed utilizing the statistical analysis software JMP (SAS Institute, Cary, N.C.). p values ≦0.05 were considered statistically significant.

[3] = tested on: human retinal endothelial cells (HREC); assay: Testing 4: VEGF-induced HREC proliferation (MTS assay), Avastin with or without BOL-303050-X; assay type: cell-based
Protocol: HREC were first cultured overnight in a 96-well plate coated with fibronectin. The next day, cells were serum-starved for 2 hours before treatment. […] The cells were then cultured at 37° C., 5% CO2, and 95% humidity for another 3 days.
A 96-well plate was coated with human fibronectin (10 μg/ml) at 37° C. for 5 h. HREC were collected from flasks by EDTA-trypsin treatment and re-suspended in 10% FBS CS-C medium at 18,000 cells/ml. Cells (200 μl/well) were added to the plate and cultured overnight at 37° C., 5% CO2, and 95% humidity. The next day, medium was aspirated and 200 μl/well serum-free medium was added for 2 h at 37° C., 5% CO2, and 95% humidity.
Normal IgG was added in such a way that all groups contained the same amount of IgG proteins. All medium solutions were incubated for 1 h at 37° C., 5% CO2, and 95% humidity. After carefully aspirating the medium from cells, 200 μl of the medium containing different agents were added into appropriate wells. The cells were further cultured for 3 days.
At the end of incubation, the medium was carefully aspirated from cells and 120 μl of MTS working solution was added into all wells including four blank wells (without cells). The plate was incubated at 37° C., 5% CO2, and 95% humidity for 1 hour and then read by a plate reader at 490 nm wavelength.
Median optical density (OD) was generated from different groups. Data were expressed as mean±SEM of the OD values. Statistical analysis was performed using two-way ANOVA followed by the contrast procedure after Box-Cox transformations if needed, and p<0.05 was considered statistically significant. […] All the data from the individual wells were fitted to a re-parameterized four-parameter logistic equation to obtain IC50 using similar methodology as that previously described and utilizing the statistical analysis software JMP (SAS Institute, Cary, N.C.).

[4] = Ocular clinical findings in rats 14 days after intravitreal injection; conditions: Day 14; 200 μg/eye intravitreal
[5] = one intravitreal injection after laser

Vitreal cell score: number of eyes with grade 0 ([1]; Day 3): 11
Vitreal cell score: number of eyes with grade 1 ([1]; Day 3): 1
Vitreal cell score: number of eyes with grade 2 ([1]; Day 3): 0
Vitreal cell score: number of eyes with grade 3 ([1]; Day 3): 0
Vitreal cell score: number of eyes with grade 4 ([1]; Day 3): 0
Vitreal cell score: number of eyes with grade Trace ([1]; Day 3): 6
Vitreal cell score: number of eyes with grade 0 ([1]; Day 7): 0
Vitreal cell score: number of eyes with grade 1 ([1]; Day 7): 3
Vitreal cell score: number of eyes with grade 2 ([1]; Day 7): 6
Vitreal cell score: number of eyes with grade 3 ([1]; Day 7): 3
Vitreal cell score: number of eyes with grade 4 ([1]; Day 7): 1
Vitreal cell score: number of eyes with grade Trace ([1]; Day 7): 5
Vitreal cell score: number of eyes with grade 0 ([1]; Day 15): 0
Vitreal cell score: number of eyes with grade 1 ([1]; Day 15): 7
Vitreal cell score: number of eyes with grade 2 ([1]; Day 15): 3
Vitreal cell score: number of eyes with grade 3 ([1]; Day 15): 1
Vitreal cell score: number of eyes with grade 4 ([1]; Day 15): 3
Vitreal cell score: number of eyes with grade Trace ([1]; Day 15): 4
Vitreal cell score: number of eyes with grade 0 ([1]; Day 31): 5
Vitreal cell score: number of eyes with grade 1 ([1]; Day 31): 2
Vitreal cell score: number of eyes with grade 2 ([1]; Day 31): 4
Vitreal cell score: number of eyes with grade 3 ([1]; Day 31): 0
Vitreal cell score: number of eyes with grade 4 ([1]; Day 31): 0
Vitreal cell score: number of eyes with grade Trace ([1]; Day 31): 7
Vitreal cell score: number of eyes with grade 0 ([1]; Day 38): 6
Vitreal cell score: number of eyes with grade 1 ([1]; Day 38): 5
Vitreal cell score: number of eyes with grade 2 ([1]; Day 38): 0
Vitreal cell score: number of eyes with grade 3 ([1]; Day 38): 0
Vitreal cell score: number of eyes with grade 4 ([1]; Day 38): 0
Vitreal cell score: number of eyes with grade Trace ([1]; Day 38): 7
Eyes with anterior chamber inflammation/Total eyes [4]: 5/6
Eyes with retinal vascular congestion/vessel-observable eyes [4]: 2/2
Structure (SMILES): CCc1nc(NC[C@H](NC(=O)OCc2ccccc2)C(=O)O)c(C)c(N2CCC(c3ccc4c(n3)NCCC4)CC2)n1 [BOL-303055-X]
CNV area / development of CNV on isolectin IB4-labeled flat mounts compared to vehicle-treated controls [2, 5]: smaller area of CNV
Mean score of fluorescein leakage (FA score) compared to vehicle-treated controls [2, 5]: smaller means
Number of lesions in FA grade 1 ([2]; unobstructed lesions): 0
Number of lesions in FA grade 2 ([2]; unobstructed lesions): 3
Number of lesions in FA grade 3 ([2]; unobstructed lesions): 2
Number of lesions in FA grade 4 ([2]; unobstructed lesions): 1
Enhancement of Avastin potency ([3]; compound at 1 nM): approximately 6 fold
Enhancement of Avastin potency ([3]; compound at 10 nM): ~7 fold
Posterior synechiae of iris [4]: Posterior synechiae of iris occurred in several eyes
